Source: ChEMBL document CHEMBL2034937, “Novel 3-Oxazolidinedione-6-aryl-pyridinones as Potent, Selective, and Orally Active EP3 Receptor Antagonists” (ACS Med Chem Lett, 2010)
The source made the active and inactive calls. No cut-off for these calls is given here.

Key:
[1] = Oral bioavailability in Sprague-Dawley rat at 2 mg/kg; assay type: ADME, organism-based; settings: in vivo
[2] = Drug metabolism in rat liver S9 fraction assessed as glutathione conjugate level at 10 uM after 30 mins by HPLC in absence of NADPH; assay type: ADME, subcellular; settings: s9, 0.5 h
[3] = Drug metabolism in rat liver S9 fraction assessed as NADPH-dependent glutathione conjugate level at 10 uM after 30 mins by LC-MS/MS analysis; assay type: ADME, subcellular; settings: s9, 0.5 h
[4] = Drug metabolism in human liver S9 fraction assessed as NADPH-dependent glutathione conjugate level at 10 uM after 30 mins by LC-MS/MS analysis; assay type: ADME, subcellular; settings: s9, 0.5 h
[5] = Half life in Sprague-Dawley rat at 1 mg/kg, iv; assay type: ADME, organism-based; set-up: dose 1 mg/kg, route intravenous; settings: in vivo
[6] = Clearance in Sprague-Dawley rat at 1 mg/kg, iv and 2 mg/kg, po; assay type: ADME, organism-based; settings: in vivo
[7] = Drug metabolism in human liver S9 fraction assessed as glutathione conjugate level at 10 uM after 30 mins by HPLC in absence of NADPH; assay type: ADME, subcellular; settings: s9, 0.5 h
[8] = tested on: Rattus norvegicus; assay: Dose-normalized AUC in Sprague-Dawley rat at 2 mg/kg, po; assay type: ADME, organism-based; set-up: dose 2 mg/kg, route oral; settings: in vivo
[9] = target: T1, Prostaglandin E2 receptor EP3 subtype (Rattus norvegicus, UniProt P34980); assay: Antagonist activity at rat EP3 receptor expressed in human U2OS cells co-expressing Gqi5 assessed as inhibition of PGE2-induced response after 24 hrs by FLIPR assay; assay type: functional, cell-based
T1 sequence (P34980 whole entry): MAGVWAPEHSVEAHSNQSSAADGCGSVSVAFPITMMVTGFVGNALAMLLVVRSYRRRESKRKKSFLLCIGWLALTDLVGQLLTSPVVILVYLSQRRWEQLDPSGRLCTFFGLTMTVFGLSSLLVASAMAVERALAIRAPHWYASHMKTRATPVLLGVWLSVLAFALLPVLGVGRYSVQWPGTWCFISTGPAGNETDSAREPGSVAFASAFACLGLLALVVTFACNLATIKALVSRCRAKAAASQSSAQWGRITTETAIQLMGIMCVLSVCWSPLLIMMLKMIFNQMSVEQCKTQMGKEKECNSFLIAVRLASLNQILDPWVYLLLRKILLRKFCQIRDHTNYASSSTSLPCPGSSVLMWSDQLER

[10] = target: T2, Prostaglandin E2 receptor EP3 subtype (Homo sapiens, UniProt P43115); assay: Antagonist activity at human EP3c receptor expressed in human U2OS cells assessed as inhibition of PGE2-induced calcium mobilization after 24 hrs by FLIPR assay; assay type: functional, cell-based
T2 sequence (P43115 whole entry): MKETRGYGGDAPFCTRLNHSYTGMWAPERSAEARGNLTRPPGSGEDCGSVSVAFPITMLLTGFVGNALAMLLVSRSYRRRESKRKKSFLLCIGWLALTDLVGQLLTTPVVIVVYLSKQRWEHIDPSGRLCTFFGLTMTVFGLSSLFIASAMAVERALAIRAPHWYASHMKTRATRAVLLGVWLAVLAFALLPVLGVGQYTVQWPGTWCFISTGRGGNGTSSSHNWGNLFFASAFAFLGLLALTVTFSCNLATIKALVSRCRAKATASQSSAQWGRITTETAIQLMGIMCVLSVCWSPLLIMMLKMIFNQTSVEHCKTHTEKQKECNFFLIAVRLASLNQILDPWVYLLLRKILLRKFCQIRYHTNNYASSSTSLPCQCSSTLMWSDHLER

[11] = Antagonist activity at dog EP3 receptor expressed in human U2OS cells co-expressing Gqi5 assessed as inhibition of PGE2-induced response after 24 hrs by FLIPR assay; assay type: functional, cell-based, Canis lupus familiaris
[12] = tested on: Rattus norvegicus; assay: Inhibition of GR63799-induced decrease in bladder capacity in conscious spontaneously hypertensive overactive bladder rat model at 3 mg/kg, id; assay type: functional, organism-based; set-up: dose 3 mg/kg; settings: Urinary bladder
[13] = tested on: Rattus norvegicus; assay: Inhibition of GR63799-induced decrease in bladder capacity in conscious spontaneously hypertensive overactive bladder rat model at 0.3 mg/kg, id; assay type: functional, organism-based; set-up: dose 0.3 mg/kg; settings: Urinary bladder
[14] = tested on: Rattus norvegicus; assay: Inhibition of PGE2-induced decrease in bladder capacity in conscious spontaneously hypertensive overactive bladder rat model at 30 mg/kg, id; assay type: functional, organism-based; set-up: dose 30 mg/kg; settings: Urinary bladder
[15] = tested on: Rattus norvegicus; assay: Inhibition of acetic acid-induced decrease in bladder capacity in conscious spontaneously hypertensive overactive bladder rat model at 30 mg/kg, id; assay type: functional, organism-based; set-up: dose 30 mg/kg; settings: Urinary bladder
[16] = tested on: Rattus norvegicus; assay: Inhibition of saline-induced bladder rhythmic contraction in anesthetized iv dosed Sprague-Dawley rat model; assay type: functional, organism-based
[17] = tested on: Rattus norvegicus; assay: Inhibition of GR63799-induced decrease in bladder capacity in conscious spontaneously hypertensive overactive bladder rat model at 30 mg/kg, id; assay type: functional, organism-based; set-up: dose 30 mg/kg; settings: Urinary bladder

SMILES	bioavailability [1]	Drug metabolism [2]	Drug metabolism [3]	Drug metabolism [4]	half-life [5]	clearance [6]	Drug metabolism [7]	AUC/dose [8]	Ki [9]	Ki [10]	pKi [11]	inhibition [12]	inhibition [13]	inhibition [14]	inhibition [15]	inhibition [16]	inhibition [17]
CC(C)C1(c2ccc(-c3ccc4c(ccn4C)c3)[nH]c2=O)OC(=O)NC1=O (configuration not stated)	80%	Not Active	Not Active	Not Active	4.2 h	4.5 mL/min/kg	Not Active	3 µg·h/mL/mg/kg	7.94 nM	6.31 nM							
CC(C)C1(c2ccc(-c3ccc4ccccc4c3)[nH]c2=O)OC(=O)NC1=O (configuration not stated)											7.7	Active	inactive	Active	Active	Dose-dependent effect	Active
CC(C)C1(c2ccc(-c3ccc4cccc(F)c4c3)[nH]c2=O)OC(=O)NC1=O (configuration not stated)	93%	Not Active	Not Active	Not Active	3.9 h	2.8 mL/min/kg	Not Active	5.6 µg·h/mL/mg/kg	3.16 nM	3.16 nM							
